#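 Dose response: 5 concentrations. Exposure: 48 h. Format: 96-well plates. Endpoint: linear interpolation; highest concentration if not reached. GI50 is the concentration that inhibits growth by half. Definition used: TGI = concentration required for complete inhibition of growth.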
# Experiments:
# Assay in all cases: NCI-60 cell line screen, 48 h
# NCI-H226 lung = test system: NCI-H226 lung
# OVCAR-4 ovarian = test system: OVCAR-4 ovarian
# HOP-92 NSCLC = test system: HOP-92 NSCLC
# MDA-MB-435 = test system: MDA-MB-435
# BT-549 breast = test system: BT-549 breast
# HT29 colon = test system: HT29 colon
# U251 CNS = test system: U251 CNS
# RPMI-8226 leukemia = test system: RPMI-8226 leukemia
# HCC-2998 colon = test system: HCC-2998 colon
# EKVX NSCLC = test system: EKVX NSCLC
# HS 578T breast = test system: HS 578T breast
# M14 melanoma = test system: M14 melanoma
# MDA-MB-231 breast = test system: MDA-MB-231 breast
# UACC-257 melanoma = test system: UACC-257 melanoma
# NCI-H522 lung = test system: NCI-H522 lung
# OVCAR-3 ovarian = test system: OVCAR-3 ovarian
# LOX IMVI melanoma = test system: LOX IMVI melanoma
# SN12C renal = test system: SN12C renal
# HOP-62 NSCLC = test system: HOP-62 NSCLC
# SW-620 colon = test system: SW-620 colon
# PC-3 prostate = test system: PC-3 prostate
# UACC-62 melanoma = test system: UACC-62 melanoma
# OVCAR-5 ovarian = test system: OVCAR-5 ovarian
# UO-31 renal = test system: UO-31 renal
# SK-OV-3 ovarian = test system: SK-OV-3 ovarian
# OVCAR-8 ovarian = test system: OVCAR-8 ovarian
# A549 NSCLC = test system: A549 NSCLC
# MCF7 breast = test system: MCF7 breast
# NCI-H23 lung = test system: NCI-H23 lung
# SNB-19 CNS = test system: SNB-19 CNS
# A498 renal = test system: A498 renal
# SF-539 CNS = test system: SF-539 CNS
# MOLT-4 leukemia = test system: MOLT-4 leukemia
# T-47D breast = test system: T-47D breast
# HCT-116 colon = test system: HCT-116 colon
# HCT-15 colon = test system: HCT-15 colon
# SF-295 CNS = test system: SF-295 CNS
# DU-145 prostate = test system: DU-145 prostate
# COLO 205 colon = test system: COLO 205 colon
# IGROV1 ovarian = test system: IGROV1 ovarian
# SK-MEL-28 melanoma = test system: SK-MEL-28 melanoma
# 786-0 renal = test system: 786-0 renal
# NCI-H460 lung = test system: NCI-H460 lung
# NCI/ADR-RES ovarian = test system: NCI/ADR-RES ovarian
# SK-MEL-5 melanoma = test system: SK-MEL-5 melanoma
# CCRF-CEM leukemia = test system: CCRF-CEM leukemia
# SR leukemia = test system: SR leukemia
# SK-MEL-2 melanoma = test system: SK-MEL-2 melanoma
# HL-60(TB) leukemia = test system: HL-60(TB) leukemia
# K-562 leukemia = test system: K-562 leukemia
# TK-10 renal = test system: TK-10 renal
# KM12 colon = test system: KM12 colon
# SNB-75 CNS = test system: SNB-75 CNS
# SF-268 CNS = test system: SF-268 CNS
# ACHN renal = test system: ACHN renal
# CAKI-1 renal = test system: CAKI-1 renal
# RXF 393 renal = test system: RXF 393 renal
# MALME-3M melanoma = test system: MALME-3M melanoma
structure (smiles),measurement,setting,value
CN(C)c1nc(N)nc(CCl)n1,TGI,NCI-H226 lung,> 100 µM
same,TGI,OVCAR-4 ovarian,38.2 µM
same,TGI,HOP-92 NSCLC,45.6 µM
same,TGI,MDA-MB-435,> 100000 nM
same,TGI,BT-549 breast,> 100 µM
same,TGI,HT29 colon,> 100 µM
same,TGI,U251 CNS,> 100 µM
same,TGI,RPMI-8226 leukemia,> 100 µM
same,TGI,HCC-2998 colon,> 100 µM
same,TGI,EKVX NSCLC,41.6 µM
same,TGI,HS 578T breast,> 100 µM
same,TGI,M14 melanoma,> 100 µM
same,TGI,MDA-MB-231 breast,72.4 µM
same,TGI,UACC-257 melanoma,> 100 µM
same,TGI,NCI-H522 lung,25 µM
same,TGI,OVCAR-3 ovarian,49 µM
same,TGI,LOX IMVI melanoma,21.9 µM
same,TGI,SN12C renal,> 100 µM
same,TGI,HOP-62 NSCLC,46.8 µM
same,TGI,SW-620 colon,87.7 µM
same,TGI,PC-3 prostate,> 100 µM
same,TGI,UACC-62 melanoma,41.5 µM
same,TGI,OVCAR-5 ovarian,> 100 µM
same,TGI,UO-31 renal,26.1 µM
same,TGI,SK-OV-3 ovarian,> 100 µM
same,TGI,OVCAR-8 ovarian,> 100 µM
same,TGI,A549 NSCLC,> 100 µM
same,TGI,MCF7 breast,> 100 µM
same,TGI,NCI-H23 lung,68.9 µM
same,TGI,SNB-19 CNS,> 100 µM
same,TGI,A498 renal,70.8 µM
same,TGI,SF-539 CNS,60.2 µM
same,TGI,MOLT-4 leukemia,> 100 µM
same,TGI,T-47D breast,> 100 µM
same,TGI,HCT-116 colon,> 100 µM
same,TGI,HCT-15 colon,93 µM
same,TGI,SF-295 CNS,> 100 µM
same,TGI,DU-145 prostate,> 100 µM
same,TGI,COLO 205 colon,61.8 µM
same,TGI,IGROV1 ovarian,35 µM
same,TGI,SK-MEL-28 melanoma,> 100 µM
same,TGI,786-0 renal,58.3 µM
same,TGI,NCI-H460 lung,> 100 µM
same,TGI,NCI/ADR-RES ovarian,86.8 µM
same,TGI,SK-MEL-5 melanoma,90.6 µM
same,TGI,CCRF-CEM leukemia,58.6 µM
same,TGI,SR leukemia,65.8 µM
same,TGI,SK-MEL-2 melanoma,> 100 µM
same,TGI,HL-60(TB) leukemia,78.2 µM
same,TGI,K-562 leukemia,84.4 µM
same,TGI,TK-10 renal,> 100 µM
same,TGI,KM12 colon,> 100 µM
same,TGI,SNB-75 CNS,11.3 µM
same,TGI,SF-268 CNS,> 100 µM
same,TGI,ACHN renal,39.7 µM
same,TGI,CAKI-1 renal,18 µM
same,TGI,RXF 393 renal,> 100000 nM
Cn1cc(-c2nonc2-c2cn(C)c3ccc(F)cc23)c2ccccc21,GI50,NCI-H226 lung,2560 nM
same,TGI,NCI-H226 lung,> 100 µM
same,TGI,OVCAR-4 ovarian,> 100 µM
same,GI50,HOP-92 NSCLC,439 nM
same,TGI,HOP-92 NSCLC,> 100 µM
same,GI50,MDA-MB-435,199 nM
same,TGI,MDA-MB-435,623 nM
same,GI50,BT-549 breast,923 nM
same,TGI,BT-549 breast,> 100 µM
same,GI50,HT29 colon,346 nM
same,TGI,HT29 colon,> 100 µM
same,GI50,U251 CNS,469 nM
same,TGI,U251 CNS,> 100 µM
same,GI50,RPMI-8226 leukemia,463 nM
same,TGI,RPMI-8226 leukemia,> 100 µM
same,GI50,HCC-2998 colon,958 nM
same,TGI,HCC-2998 colon,> 100 µM
same,GI50,EKVX NSCLC,721 nM
same,TGI,EKVX NSCLC,> 100 µM
same,GI50,HS 578T breast,299 nM
same,GI50,M14 melanoma,342 nM
same,TGI,M14 melanoma,> 100 µM
same,GI50,MDA-MB-231 breast,869 nM
same,TGI,MDA-MB-231 breast,> 100 µM
same,GI50,NCI-H522 lung,357 nM
same,TGI,NCI-H522 lung,> 100 µM
same,GI50,OVCAR-3 ovarian,340 nM
same,GI50,LOX IMVI melanoma,564 nM
same,TGI,LOX IMVI melanoma,> 100 µM
same,GI50,SN12C renal,724 nM
same,TGI,SN12C renal,> 100 µM
same,GI50,HOP-62 NSCLC,590 nM
same,TGI,HOP-62 NSCLC,> 100 µM
same,GI50,SW-620 colon,361 nM
same,TGI,SW-620 colon,> 100 µM
same,GI50,PC-3 prostate,427 nM
same,TGI,PC-3 prostate,> 100 µM
same,GI50,UACC-62 melanoma,469 nM
same,TGI,UACC-62 melanoma,> 100 µM
same,GI50,OVCAR-5 ovarian,1050 nM
same,TGI,OVCAR-5 ovarian,> 100 µM
same,GI50,UO-31 renal,438 nM
same,TGI,UO-31 renal,> 100 µM
same,GI50,SK-OV-3 ovarian,594 nM
same,TGI,SK-OV-3 ovarian,> 100 µM
same,GI50,OVCAR-8 ovarian,630 nM
same,TGI,OVCAR-8 ovarian,> 100 µM
same,GI50,A549 NSCLC,703 nM
same,TGI,A549 NSCLC,> 100 µM
same,GI50,MCF7 breast,366 nM
same,TGI,MCF7 breast,> 100 µM
same,GI50,NCI-H23 lung,836 nM
same,TGI,NCI-H23 lung,> 100 µM
same,GI50,SNB-19 CNS,555 nM
same,TGI,SNB-19 CNS,> 100 µM
same,GI50,A498 renal,273 nM
same,TGI,A498 renal,0.976 µM
same,GI50,SF-539 CNS,291 nM
same,TGI,SF-539 CNS,1.58 µM
same,GI50,MOLT-4 leukemia,685 nM
same,TGI,MOLT-4 leukemia,> 100 µM
same,GI50,T-47D breast,809 nM
same,TGI,T-47D breast,> 100 µM
same,GI50,HCT-116 colon,432 nM
same,TGI,HCT-116 colon,> 100 µM
same,GI50,HCT-15 colon,398 nM
same,TGI,HCT-15 colon,> 100 µM
same,GI50,SF-295 CNS,299 nM
same,GI50,DU-145 prostate,530 nM
same,TGI,DU-145 prostate,> 100 µM
same,GI50,COLO 205 colon,856 nM
same,TGI,COLO 205 colon,> 100 µM
same,GI50,IGROV1 ovarian,522 nM
same,TGI,IGROV1 ovarian,> 100 µM
same,GI50,SK-MEL-28 melanoma,3.5 µM
same,TGI,SK-MEL-28 melanoma,> 100 µM
same,GI50,786-0 renal,614 nM
same,TGI,786-0 renal,> 100 µM
same,GI50,NCI-H460 lung,390 nM
same,TGI,NCI-H460 lung,> 100 µM
same,GI50,NCI/ADR-RES ovarian,395 nM
same,TGI,NCI/ADR-RES ovarian,> 58.3 µM
same,GI50,SK-MEL-5 melanoma,502 nM
same,TGI,SK-MEL-5 melanoma,> 100 µM
same,GI50,CCRF-CEM leukemia,319 nM
same,TGI,CCRF-CEM leukemia,> 100 µM
same,GI50,SR leukemia,269 nM
same,TGI,SR leukemia,> 100 µM
same,GI50,SK-MEL-2 melanoma,552 nM
same,TGI,SK-MEL-2 melanoma,> 100 µM
same,GI50,HL-60(TB) leukemia,306 nM
same,TGI,HL-60(TB) leukemia,2.3 µM
same,GI50,K-562 leukemia,311 nM
same,TGI,K-562 leukemia,> 100 µM
same,GI50,TK-10 renal,> 20.4 µM
same,TGI,TK-10 renal,> 100 µM
same,GI50,KM12 colon,433 nM
same,TGI,KM12 colon,> 100 µM
same,GI50,SNB-75 CNS,206 nM
same,TGI,SNB-75 CNS,0.702 µM
same,GI50,SF-268 CNS,1210 nM
same,TGI,SF-268 CNS,> 100 µM
same,GI50,ACHN renal,595 nM
same,TGI,ACHN renal,> 100 µM
same,GI50,CAKI-1 renal,416 nM
same,TGI,CAKI-1 renal,> 100 µM
same,GI50,RXF 393 renal,271 nM
same,TGI,RXF 393 renal,873 nM
same,GI50,MALME-3M melanoma,540 nM
same,TGI,MALME-3M melanoma,> 100 µM

# Reference: PubChem BioAssay (NCI)
